# Source: PubChem BioAssay AID322 (DTP/NCI, 2004)
# Several values for one entry are separate records, joined by “and”; a condition that tells them apart may be missing. Equal values may be shown once. Toxic doses and inconclusive results are not listed.
# Tested on: CD2F1 mice, P388/ADR leukemia ip, median survival T/C
# Test: NCI In Vivo Anticancer Drug Screen. Data for tumor model P388 Leukemia resistant to Adriamycin; NSC 123127, Developed at Scr 08 (intraperitoneal) in CD2F1 (CDF1) mice
# Conditions: endpoint: median survival time, higher = longer survival
# Method: The antitumor activity of compounds was measured in mice bearing transplantable tumors. Survival or tumor size were measured and the results are expressed as the measurement made in the treated group (T) divided by the measurement made in the vehicle treated control group (C). The tumor model used in this assay is P388 Leukemia resistant to Adriamycin; NSC 123127, Developed at Scr 08 (intraperitoneal) in CD2F1 (CDF1) mice
# [1] = dose: 12.5 mg/kg/injection, schedule: Q01DX005 (ip), vehicle: water
# [2] = dose: 3.12 mg/kg/injection, schedule: Q01DX005 (ip), vehicle: Klucel (hydroxypropylcellulose) (HPC)
# [3] = dose: 6.25 mg/kg/injection, schedule: Q01DX005 (ip), vehicle: Klucel (hydroxypropylcellulose) (HPC)
# [4] = dose: 25.0 mg/kg/injection, schedule: Q01DX005 (ip), vehicle: saline with Tween-80
# [5] = dose: 50.0 mg/kg/injection, schedule: Q01DX005 (ip), vehicle: saline with Tween-80
smiles,measurement,setting,value
O=C1C=C(N2CC2)C(=O)C(N2CC2)=C1N1CC1,T/C,"dose: 0.02 mg/kg/injection, schedule: Q01DX005 (ip), vehicle: saline",180 % of control
same,T/C,"dose: 0.04 mg/kg/injection, schedule: Q01DX005 (ip), vehicle: saline",176 % of control and 223 % of control
same,T/C,"dose: 0.08 mg/kg/injection, schedule: Q01DX005 (ip), vehicle: saline",240 % of control and 294 % of control
same,T/C,"dose: 0.16 mg/kg/injection, schedule: Q01DX005 (ip), vehicle: saline",233 % of control and 294 % of control
same,T/C,"dose: 0.32 mg/kg/injection, schedule: Q01DX005 (ip), vehicle: saline",87 % of control and 110 % of control
CCOc1ccc(C(C)c2cc3c(cc2OC)OCO3)cc1 (stereo unspecified),T/C,"dose: 25.0 mg/kg/injection, schedule: Q01DX005 (ip), vehicle: distilled water + Tween-80",110 % of control
same,T/C,"dose: 50.0 mg/kg/injection, schedule: Q01DX005 (ip), vehicle: distilled water + Tween-80",100 % of control
same,T/C,"dose: 72.0 mg/kg/injection, schedule: Q01DX005 (ip), vehicle: distilled water + Tween-80",117 % of control
same,T/C,"dose: 100.0 mg/kg/injection, schedule: Q01DX005 (ip), vehicle: distilled water + Tween-80",113 % of control
same,T/C,"dose: 120.0 mg/kg/injection, schedule: Q01DX005 (ip), vehicle: distilled water + Tween-80",118 % of control
same,T/C,"dose: 200.0 mg/kg/injection, schedule: Q01DX005 (ip), vehicle: distilled water + Tween-80",167 % of control and 184 % of control
same,T/C,"dose: 333.33 mg/kg/injection, schedule: Q01DX005 (ip), vehicle: distilled water + Tween-80",165 % of control and 176 % of control
CO[C@@]12[C@H](COC(N)=O)C3=C(C(=O)C(C)=C(N)C3=O)N1C[C@@H]1N[C@@H]12,T/C,"dose: 0.5 mg/kg/injection, schedule: Q01DX009 (ip), vehicle: saline with Tween-80",178 % of control
same,T/C,"dose: 1.0 mg/kg/injection, schedule: Q01DX009 (ip), vehicle: saline with Tween-80",198 % of control and 207 % of control
same,T/C,"dose: 2.0 mg/kg/injection, schedule: Q01DX009 (ip), vehicle: saline with Tween-80",110 % of control and 117 % of control
same,T/C,"dose: 3.6 mg/kg/injection, schedule: Q01DX001 (ip), vehicle: saline",151 % of control
same,T/C,"dose: 3.6 mg/kg/injection, schedule: Q01DX001 (ip), vehicle: water",154 % of control
same,T/C,"dose: 5.4 mg/kg/injection, schedule: Q01DX001 (ip), vehicle: saline",177 % of control
same,T/C,"dose: 5.4 mg/kg/injection, schedule: Q01DX001 (ip), vehicle: water",162 % of control
same,T/C,"dose: 12.0 mg/kg/injection, schedule: Q01DX001 (ip), vehicle: saline",117 % of control
same,T/C,"dose: 12.0 mg/kg/injection, schedule: Q01DX001 (ip), vehicle: water",112 % of control
CCN(CC)CCn1[nH]c2c3ccc(=O)cc3sc3c(NCCN)ccc1c32,T/C,"dose: 1.56 mg/kg/injection, schedule: Q01DX005 (ip), vehicle: water",99 % of control
same,T/C,"dose: 3.12 mg/kg/injection, schedule: Q01DX005 (ip), vehicle: water",95 % of control
same,T/C,"dose: 6.25 mg/kg/injection, schedule: Q01DX005 (ip), vehicle: water",106 % of control
same,T/C,[1],91 % of control
CCOC1NC(=O)Oc2ccccc21 (stereo unspecified),T/C,[2],101 % of control
same,T/C,[3],100 % of control
same,T/C,"dose: 12.5 mg/kg/injection, schedule: Q01DX005 (ip), vehicle: Klucel (hydroxypropylcellulose) (HPC)",94 % of control
same,T/C,"dose: 25.0 mg/kg/injection, schedule: Q01DX005 (ip), vehicle: Klucel (hydroxypropylcellulose) (HPC)",87 % of control and 101 % of control and 104 % of control
same,T/C,"dose: 50.0 mg/kg/injection, schedule: Q01DX005 (ip), vehicle: Klucel (hydroxypropylcellulose) (HPC)",88 % of control and 110 % of control
same,T/C,"dose: 72.0 mg/kg/injection, schedule: Q01DX005 (ip), vehicle: Klucel (hydroxypropylcellulose) (HPC)",108 % of control
same,T/C,"dose: 100.0 mg/kg/injection, schedule: Q01DX005 (ip), vehicle: Klucel (hydroxypropylcellulose) (HPC)",104 % of control and 118 % of control
same,T/C,"dose: 120.0 mg/kg/injection, schedule: Q01DX005 (ip), vehicle: Klucel (hydroxypropylcellulose) (HPC)",116 % of control
same,T/C,"dose: 333.0 mg/kg/injection, schedule: Q01DX005 (ip), vehicle: Klucel (hydroxypropylcellulose) (HPC)",153 % of control
O=C(Oc1ccccc1)c1cc(O)c(O)c(O)c1,T/C,[4],102 % of control
same,T/C,[5],98 % of control
same,T/C,"dose: 100.0 mg/kg/injection, schedule: Q01DX005 (ip), vehicle: saline with Tween-80",99 % of control
same,T/C,"dose: 200.0 mg/kg/injection, schedule: Q01DX005 (ip), vehicle: saline with Tween-80",112 % of control
COc1ccc(C(C)c2cc3c(cc2OC)OCO3)cc1 (stereo unspecified),T/C,"dose: 12.5 mg/kg/injection, schedule: Q01DX005 (ip), vehicle: saline with Tween-80",105 % of control
same,T/C,[4],109 % of control
same,T/C,[5],119 % of control
O=C1CN(CCN2CC(=O)N(CN3CCOCC3)C(=O)C2)CC(=O)N1CN1CCOCC1,T/C,[1],107 % of control
same,T/C,"dose: 25.0 mg/kg/injection, schedule: Q01DX005 (ip), vehicle: water",105 % of control
same,T/C,"dose: 50.0 mg/kg/injection, schedule: Q01DX005 (ip), vehicle: water",96 % of control
same,T/C,"dose: 100.0 mg/kg/injection, schedule: Q01DX005 (ip), vehicle: water",100 % of control
O=P1(N(CCCl)CCCl)NCCCO1 (stereo unspecified),T/C,"dose: 12.5 mg/kg/injection, schedule: Q01DX005 (ip), vehicle: saline",154 % of control
same,T/C,"dose: 25.0 mg/kg/injection, schedule: Q01DX005 (ip), vehicle: saline",165 % of control and 189 % of control
same,T/C,"dose: 50.0 mg/kg/injection, schedule: Q01DX005 (ip), vehicle: saline",191 % of control and 217 % of control
same,T/C,"dose: 100.0 mg/kg/injection, schedule: Q01DX005 (ip), vehicle: saline",171 % of control and 309 % of control
O=[N+]([O-])c1ccc(N(CCO)CCO)c2c1no[n+]2[O-],T/C,"dose: 3.12 mg/kg/injection, schedule: Q01DX005 (ip), vehicle: saline with Tween-80",114 % of control
same,T/C,"dose: 6.25 mg/kg/injection, schedule: Q01DX005 (ip), vehicle: saline with Tween-80",124 % of control
CN=C(NC)c1ccc(NC(=O)/C=C\c2ccc(/C=C/C(=O)Nc3ccc(C(=NC)NC)cc3)cc2)cc1,T/C,"dose: 1.56 mg/kg/injection, schedule: Q01DX005 (ip), vehicle: Klucel (hydroxypropylcellulose) (HPC)",107 % of control
same,T/C,[2],109 % of control
same,T/C,[3],116 % of control
CN(C)CCN1C(=O)c2cccc3cc(N)cc(c23)C1=O,T/C,"dose: 7.0 mg/kg/injection, schedule: Q01DX009 (ip), vehicle: saline with Tween-80",109 % of control and 117 % of control
same,T/C,"dose: 11.0 mg/kg/injection, schedule: Q01DX009 (ip), vehicle: saline with Tween-80",116 % of control
same,T/C,"dose: 16.0 mg/kg/injection, schedule: Q01DX009 (ip), vehicle: saline with Tween-80",106 % of control and 113 % of control
same,T/C,"dose: 24.0 mg/kg/injection, schedule: Q01DX009 (ip), vehicle: saline with Tween-80",112 % of control and 116 % of control
COc1ccc(CCN(C)CCCC(C#N)(c2ccc(OC)c(OC)c2)C(C)C)cc1OC (stereo unspecified),T/C,"dose: 8.0 mg/kg/injection, schedule: Q03HX006 (ip), vehicle: saline",110 % of control
same,T/C,"dose: 16.0 mg/kg/injection, schedule: Q03HX006 (ip), vehicle: saline",104 % of control
same,T/C,"dose: 32.0 mg/kg/injection, schedule: Q03HX006 (ip), vehicle: saline",103 % of control
COC(=O)C[C@](O)(CCCC(C)(C)O)C(=O)O[C@@H]1C(OC)=C[C@]23CCCN2CCc2cc4c(cc2[C@H]13)OCO4,T/C,"dose: 0.87 mg/kg/injection, schedule: Q01DX009 (ip), vehicle: acid diluted with saline",104 % of control and 109 % of control
same,T/C,"dose: 1.3 mg/kg/injection, schedule: Q01DX009 (ip), vehicle: acid diluted with saline",99 % of control
C[C@H](N)C(=O)N[C@@H]1[C@H]2C(=C(O)C[C@@H](O)[C@@H]2O)C(=O)O[C@@H]1C,T/C,"dose: 150.0 mg/kg/injection, schedule: Q01DX005 (ip), vehicle: saline",100 % of control and 105 % of control
same,T/C,"dose: 300.0 mg/kg/injection, schedule: Q01DX005 (ip), vehicle: saline",100 % of control and 104 % of control
same,T/C,"dose: 600.0 mg/kg/injection, schedule: Q01DX005 (ip), vehicle: saline",98 % of control and 105 % of control
same,T/C,"dose: 1200.0 mg/kg/injection, schedule: Q01DX005 (ip), vehicle: saline",97 % of control and 103 % of control
COc1cccc2c1C(=O)c1c(O)c3c(c(O)c1C2=O)C[C@@](O)(C(=O)CO)C[C@@H]3OC1CC(N2CCOCC2)C(O)C(C)O1 (stereo partly specified),T/C,"dose: 22.0 micrograms/kg/injection, schedule: Q04DX003 (iv), vehicle: saline + alcohol",107 % of control
same,T/C,"dose: 33.0 micrograms/kg/injection, schedule: Q04DX003 (iv), vehicle: saline + alcohol",105 % of control
same,T/C,"dose: 50.0 micrograms/kg/injection, schedule: Q04DX003 (iv), vehicle: saline + alcohol",102 % of control
same,T/C,"dose: 75.0 micrograms/kg/injection, schedule: Q04DX003 (iv), vehicle: saline + alcohol",101 % of control
